≈ marks a conversion by molar mass, not a printed value. Like-named read-outs stand apart in the source and are kept apart here.
Tests used:
[1] = test system: H. pylori; experiment: Anti H. pylori screening by disc diffusion susceptibility assay; type: cell-based, Helicobacter pylori; parameters: key: strongly active (diameter>30 mm) and were given a score of 3^+; intermediate active (^˜20-30 mm diameter) and were given a score of 2^+; moderately active (^˜10-20 min diameter) and were given a score of 1^+; not active (>10 mm diameter); conditions: 100 and 200 μg/disc, majority of the strains
Experimental: (§1) The discs were impregnated with […] of each of the compounds, dissolved either in ethanol or DMSO, and the zone of inhibition was measured after 72 h of growth under microaerophilic conditions at 37° C. Inhibition zone diameter ranging 10-20 mm was given a score of ^+, 20-30 mm as ^++ and that of >30 mm as ^+++, as obtained employing dose range of […]/disc. The detailed structural information of the molecules is provided under ‘Description of the Compounds’.
(§2) Methods and protocols for the determination of inhibition zone diameter are as stated under Experiment 1, and that of MIC values by microbroth dilution assay as in Experiment 3. ‘Nil’ means zone of inhibition below 10 mm.
(§3) The anti H. pylori activity of all 16 flavonoid molecules, 2 naturally isolated and 14 synthetic derivatives, was screened by disc diffusion sensitivity assay employing 2 clinical strains HP001 and HP002, and three standard strains ATCC® 700392, 43504 and 49503. A 0.5 mL inoculum (10^8 CFU/mL) for each bacterial strain tested was flooded on freshly prepared Brain Heart Infusion (BHI) agar plates supplemented with 7% FCS, 0.5% IsoVitalex and 0.0025% DENT® and the discs (5 mm diameter) containing different compounds or antibiotics (dissolved either in ethanol or DMSO) were placed on the agar surface. After incubation for 3 days in a microaerophilic atmosphere at 37° C., the diameter of the zone of inhibition was measured (Glupczynsky, 1996; McNulty et al., 2002).

[2] = test system: H. pylori; experiment: as above; type: cell-based, Helicobacter pylori; parameters: key: strongly active (3^+, diameter>30 mm); intermediate active (2^+, ˜20-30 mm diameter); moderately active (1^+, ˜10-20 mm diameter); not active (<10 mm diameter); conditions: two doses, majority of the strains
Experimental: as §1, §2, §3

[3] = test system: H. pylori; experiment: as above; type: cell-based, Helicobacter pylori; conditions: 100 and 200 mg/disc (so in the source), 72 h
Experimental: as §1, §2, §3

[4] = biological target: T1, pig gastric H^+,K^+-ATPase (Sus scrofa, UniProt P19156); experiment: Gastric H+,K+-ATPase activity assay; type: biochemical
T1 construct: tubulovesicular and apical membranes, isolated from freshly slaughtered pig gastric mucosa; from tissue; host or cells: pig gastric mucosa (membrane fraction by density gradient centrifugation)
Experimental: The data are averages of 3-4 determinations each carried out in triplicate. The assay system contained 10 mM PIPES-Tris (pH 6.8), 2 mM each of ATP and MgCl2 with or without 10 mM KCl and about […] in a final volume of 1 mL. Both blank and experimental tubes with or without CPP-1 at different concentrations were preincubated with otherwise complete assay mixture at 37° C. for 10 min before initiating the reaction with the substrate ATP. K^+-stimulated activity referred to as H^+,K^+-ATPase activity, was calculated as the difference between the activity in presence of Mg^2+ plus K^+ and the basal activity (Mg^2+-ATPase) in presence of Mg2^+ alone. The specific activity of H^+,K^+-ATPase in control sets was in the range of 40-50 μmole Pi/mg protein/h.
The effect of CPP-1 on gastric H^+K^+-ATPase was investigated. Isolation of pig gastric mucosal membranes, rich in H^+,K^+-ATPase activity, was carried out by density gradient centrifugation technique (Ray, 1978). The enzyme assay system contained 10 mM PIPES-Tris (pH 6.8), 2 mM each of ATP and MgCl with or without 10 mM KCl and about […] in a final volume of 1 mL. Both blank and experimental tubes with or without CPP-1 at different concentrations were preincubated with otherwise complete assay mixture at 37° C. for 10 min before initiating the reaction with the substrate ATP. After appropriate time of incubation with ATP at 37° C., the reaction was terminated with the addition of 1 mL of ice-cold TCA (14%, w/v). The liberated inorganic phosphate (Pi) was estimated essentially by the method of Sanui (1974). K^+-stimulated activity referred to as H^+,K^+-ATPase activity, was calculated as the difference between the activity in presence of Mg^2+ plus K^+ and the basal activity (Mg^2+-ATPase) in presence of Mg^2+ alone. The specific activity of H^+,K^+-ATPase was expressed as micromoles of Pi liberated per hour per milligram protein. The data are averages of 3-4 determinations each carried out in triplicate. The specific activity of H^+,K^+-ATPase in control sets was in the range of 40-50 μmole Pi/mg protein/h.

[5] = test system: H. pylori; experiment: MIC and MBC by microbroth dilution assay; type: cell-based, Helicobacter pylori; conditions: Helicobacter pylori
Experimental: The compounds, serially diluted ([…]) in Muller Hinton broth containing 5% FCS, were incubated in 96-well microtitre plate containing fresh cultures of HP001 (˜5.5×10^6 CFU/mL) or ATCC® 43504 (2.65×10^6 CFU/ml) in a final volume of […]. After 72-h of incubation under microaerophilic condition at 37° C., […] of cultures wherein no growth had been detected were streaked on fresh brain heart infusion agar plates for MBC determination.
In microbroth dilution assay employing one clinical and one standard strain, both the bacteriostatic and the bactericidal values were determined for all four compounds as well as for clarithromycin (Table 4). Two-fold serial dilutions were prepared in 96-well microtitre plate containing a total volume of 0.1 mL Mueller Hinton broth supplemented with 5% FCS. A 3-day old liquid culture was diluted 10 times in Mueller Hinton broth and 0.1 mL of these cultures was inoculated into each well to give a final concentration of ˜10^6 CFU/mL. The plates were incubated for 3 days in a microaerophilic atmosphere at 37° C. Following incubation, the plates were examined visually, and the lowest concentration showing complete inhibition of growth was recorded as the MIC of the respective compound (Hachem et al., 1996). Aliquots (0.1 mL) of 72-h culture in which no growth had been detected were taken from the wells of the above microtitre plates and used to streak on fresh BHI agar plates.

[6] = test system: H. pylori; experiment: Acid stability study (pH ~2.0, 2 h, then MIC/MBC by microbroth dilution); type: cell-based, Helicobacter pylori; conditions: Helicobacter pylori
Experimental: Details of experimental protocol are described under Experiment 7. MIC/MBC values were determined by microbroth dilution assay.
A 100 μL stock of CPP-1, NMC-1, NMC-2 and CPP-3 (1-2 mg/mL) was treated with 20-30 μL of 0.12 NHCl to bring the pH of the solution to ^˜2.0, and kept at 25° C. for 2 h (Funatogawa et al., 2004). Such acid-treated samples were then serially diluted (2 fold) with medium in 96-well microtitre plates to determine the MIC and the MBC values by microbroth dilution assay as detailed under Experiment 3.

[7] = test system: H. pylori; experiment: Anti H. pylori spectrum (MIC) by agar dilution method; type: cell-based, Helicobacter pylori; conditions: for MIC50 / MIC: Helicobacter pylori; for MIC50: MIC against 50% of the strains of the panel, read-out: MIC50
Experimental: MIC was determined using agar dilution assay following the CLSI® guidelines. Six clinical isolates and four standard strains were used for this study. Five microlitre of freshly grown 3-day old culture (˜1×10^8 CFU/mL) was streaked in plates containing 2-fold serial dilution of the compounds ranging […], and incubated under microaerophilic condition at 37° C. After 72 h, the plates were inspected visually for absence of growth to assess the MIC values. The experiment was performed in duplicates. MIC50 is defined as the dose (μg/ml) required for killing 50% of the strains.
Plates contained two-fold serial dilutions of the compounds ranging from […]. Five microlitres of 3-day old freshly grown H. pylori culture (^˜10^8 CFU/mL) was inoculated onto drug-containing BHI agar plates supplemented with 7% FCS, 0.5% IsoVitalex and 0.0025% DENT®, which were then incubated for 3 days under microaerophilic condition at 37° C.

[8] = test system: H. pylori; experiment: Time kill kinetic analyses in biphasic culture; type: cell-based, Helicobacter pylori
[9] = ATCC43504, microbroth dilution, ATCC 43504

T1 sequence (P19156 2-1034 limits assumed): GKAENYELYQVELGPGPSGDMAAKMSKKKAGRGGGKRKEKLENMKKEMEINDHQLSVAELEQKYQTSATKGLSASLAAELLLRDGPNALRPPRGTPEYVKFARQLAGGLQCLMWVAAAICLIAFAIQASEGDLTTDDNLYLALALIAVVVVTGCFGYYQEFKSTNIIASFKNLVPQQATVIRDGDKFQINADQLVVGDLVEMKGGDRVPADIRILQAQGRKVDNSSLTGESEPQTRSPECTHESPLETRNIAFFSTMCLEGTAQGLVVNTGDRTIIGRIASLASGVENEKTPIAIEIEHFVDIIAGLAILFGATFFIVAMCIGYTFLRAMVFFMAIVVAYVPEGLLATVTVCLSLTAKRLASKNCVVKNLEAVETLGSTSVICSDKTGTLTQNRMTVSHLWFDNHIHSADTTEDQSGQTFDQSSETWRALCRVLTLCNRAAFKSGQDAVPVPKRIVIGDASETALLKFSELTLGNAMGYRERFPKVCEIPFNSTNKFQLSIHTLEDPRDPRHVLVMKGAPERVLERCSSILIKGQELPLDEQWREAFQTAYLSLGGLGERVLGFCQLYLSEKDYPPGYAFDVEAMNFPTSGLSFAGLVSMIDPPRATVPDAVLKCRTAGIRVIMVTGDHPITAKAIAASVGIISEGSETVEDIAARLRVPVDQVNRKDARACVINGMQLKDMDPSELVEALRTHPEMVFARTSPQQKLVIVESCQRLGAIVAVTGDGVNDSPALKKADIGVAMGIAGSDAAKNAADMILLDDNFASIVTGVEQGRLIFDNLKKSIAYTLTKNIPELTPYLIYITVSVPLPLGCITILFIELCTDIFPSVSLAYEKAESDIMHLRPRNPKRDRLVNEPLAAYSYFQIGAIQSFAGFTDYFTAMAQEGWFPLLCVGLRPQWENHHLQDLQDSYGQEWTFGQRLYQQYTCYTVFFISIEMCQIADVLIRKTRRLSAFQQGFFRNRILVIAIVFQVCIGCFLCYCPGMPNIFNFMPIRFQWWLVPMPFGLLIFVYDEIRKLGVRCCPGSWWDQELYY
T1 sequence (P18434 whole entry partner): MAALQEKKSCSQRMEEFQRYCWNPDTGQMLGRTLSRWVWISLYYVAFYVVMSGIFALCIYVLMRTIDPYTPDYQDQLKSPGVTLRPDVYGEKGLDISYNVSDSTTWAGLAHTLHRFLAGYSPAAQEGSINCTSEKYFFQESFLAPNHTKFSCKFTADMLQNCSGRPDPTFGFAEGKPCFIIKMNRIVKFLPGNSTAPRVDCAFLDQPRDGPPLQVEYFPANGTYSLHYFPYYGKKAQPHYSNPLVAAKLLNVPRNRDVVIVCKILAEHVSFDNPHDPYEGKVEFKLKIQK

For “4-methyl-benzoic acid 5-hydroxy-6-methoxy-4-oxo-2-phenyl-4-H-chromen-yl ester [ORPM-1]”, the “Activity class by inhibition zone diameter” value [1] was “not active”, the “Activity class by inhibition zone diameter” value [2] was “not active” and the “Inhibition zone diameter (score)” value ([3]; ATCC standard strain 43504) was “Nil (‘Nil’ means zone of inhibition below 10 mm)”. For the same compound, the “Inhibition zone diameter (score)” value ([3]; ATCC standard strain 49503) was “Nil (‘Nil’ means zone of inhibition below 10 mm)”, the “Inhibition zone diameter (score)” value ([3]; ATCC standard strain 700392) was “Nil (‘Nil’ means zone of inhibition below 10 mm)” and the “Inhibition zone diameter (score)” value ([3]; clinical strain HP001) was “+ (Inhibition zone diameter ranging 10-20 mm was given a score of ^+)”. For the same compound, the “Inhibition zone diameter (score)” value ([3]; clinical strain HP002) was “Nil (‘Nil’ means zone of inhibition below 10 mm)”.

With COc1ccc2[nH]c([S+]([O-])Cc3ncc(C)c(OC)c3C)nc2c1 (stereo not drawn) [Omeprazole, reference compound] the “Percent inhibition of H^+, K^+-ATPase activity” value ([4]; 1 mg/assay (so in the source)) was 20%, the “Percent inhibition of H^+, K^+-ATPase activity” value ([4]; 10 mg/assay (so in the source)) was “about 80%” and the “inhibition of H^+,K^+-ATPase” value ([4]; dose range of 1-10 μg/assay) was 20-80%.

For CN1CCN(CCCOc2cc(O)c3c(=O)cc(-c4ccccc4)oc3c2)CC1 [NMC-2, 5-Hydroxy-7-[3-(4-methyl-piperazin-1-yl)-propoxy]-2-phenyl-chromen-4-one], the MBC [5, 9] was 50 µg/mL (≈ 127 µM), the MIC [5, 9] was 12.5 µg/mL (≈ 31.7 µM) and the MBC ([5]; microbroth dilution, HP001) was 25 µg/mL (≈ 63.4 µM). The MIC ([5]; microbroth dilution, HP001) was 12.5 µg/mL (≈ 31.7 µM), the MBC ([6]; 2 h, pH ~2.0, 2 h, 25° C., 43504, read-out: MBC, Acid treated) was under 50000 µg/mL and the MIC ([6]; 2 h, pH ~2.0, 2 h, 25° C., 43504, read-out: MIC, Acid treated) was 25000 µg/mL (≈ 63400 µM). It also gave an MBC ([6]; 2 h, pH ~2.0, 2 h, 25° C., HP001, read-out: MBC, Acid treated) of 50000 µg/mL (≈ 127000 µM), an MIC ([6]; 2 h, pH ~2.0, 2 h, 25° C., HP001, read-out: MIC, Acid treated) of 25000 µg/mL (≈ 63400 µM) and an MBC ([6]; not acid treated, 43504, read-out: MBC, Control) of 50000 µg/mL (≈ 127000 µM). It also gave an MIC ([6]; not acid treated, 43504, read-out: MIC, Control) of 12500 µg/mL (≈ 31700 µM), an MBC ([6]; not acid treated, HP001, read-out: MBC, Control) of 25000 µg/mL (≈ 63400 µM) and an MIC ([6]; not acid treated, HP001, read-out: MIC, Control) of 12500 µg/mL (≈ 31700 µM). The MIC50 ([7]; 72 h) was about 12.5 µg/mL (≈ 31.7 µM), the MIC ([7]; 72 h, panel of 6 clinical isolates and 4 standard strains, read-out: MIC Range) was 6.25 to 100 µg/mL (≈ 15.8 to 254 µM) and the MIC50 [7] was 12.5 µg/mL (≈ 31.7 µM). The MIC ([7]; clinical strain HP001, read-out: MIC) was 12.5 µg/mL (≈ 31.7 µM), the MIC ([7]; clinical strain HP002, read-out: MIC) was 6.25 µg/mL (≈ 15.8 µM) and the MIC ([7]; clinical strain HP003, read-out: MIC) was 12.5 µg/mL (≈ 31.7 µM). The MIC ([7]; clinical strain HP004, read-out: MIC) was 12.5 µg/mL (≈ 31.7 µM), the MIC ([7]; clinical strain HP005, read-out: MIC) was 6.25 µg/mL (≈ 15.8 µM) and the MIC ([7]; clinical strain HP006, read-out: MIC) was 12.5 µg/mL (≈ 31.7 µM). It also gave an MIC ([7]; standard strain 43504, read-out: MIC) of 12.5 µg/mL (≈ 31.7 µM), an MIC ([7]; standard strain 43629, read-out: MIC) of 25 µg/mL (≈ 63.4 µM) and an MIC ([7]; standard strain 49503, read-out: MIC) of 3.12 µg/mL (≈ 7.92 µM). The MIC ([7]; standard strain 700392, read-out: MIC) was 12.5 µg/mL (≈ 31.7 µM), the “MIC Range” value ([7]; panel of 6 clinical isolates and 4 standard strains) was 3.125 to 12.5 µg/mL and the “Inhibition zone diameter (score)” value ([3]; ATCC standard strain 43504) was “+ (Inhibition zone diameter ranging 10-20 mm was given a score of ^+)”. The “Inhibition zone diameter (score)” value ([3]; ATCC standard strain 49503) was “+ (Inhibition zone diameter ranging 10-20 mm was given a score of ^+)”, the “Inhibition zone diameter (score)” value ([3]; ATCC standard strain 700392) was “+ (Inhibition zone diameter ranging 10-20 mm was given a score of ^+)” and the “Inhibition zone diameter (score)” value ([3]; clinical strain HP001) was “+ (Inhibition zone diameter ranging 10-20 mm was given a score of ^+)”. The “Inhibition zone diameter (score)” value ([3]; clinical strain HP002) was “++ (20-30 mm as ^++)”, the “time to complete killing” value ([8]; ATCC 43504, 2×MIC (clarithromycin 0.08, CPP-1 and NMC-1 12.5, NMC-2 and CPP-3 25 μg/mL)) was at most 12 h and the “killing at MIC dose” value ([8]; ATCC 43504, MIC ([…])) was “could not produce complete killing”. For the same compound, the “time at which killing/inhibition became evident” value ([8]; HP001, biphasic culture) was over 9 h and the “killing at MIC dose (1×MIC)” value ([8]; HP001, up to 36 h) was “did not kill the bacteria completely even at 36 h”.

— patent US9642854B2, “Flavanoid compounds and process for preparation thereof” (Council of Scientific & Industrial Research, priority 2009, dated 2017)
